Patent publication US4879114A, “Lipids from omentum and methods for cosmetic use” (Angio-Medical Corporation, priority 1985, dated 1989)

Tested on: skin (back) of subjects
Conditions: in vivo

Substance: petrolatum
- challenge patch reading: dermal contact irritation or sensitization: negative at each reading without any evidence of dermal contact irritation or sensitization
- induction phase patch reading: negative at each reading
